Several values for one entry are separate records, joined by “and”; a condition that tells them apart may be missing. Identical values can stand only once. Where only a bound is given, the exact number is not on record here.

For assay [1], the system named is chronic cyclophosphamide (CYP)-induced overactive bladder mouse model. Kind of assay: Overactive Bladder In Vivo Model (chronic cyclophosphamide-induced). On the procedure:
The in vivo effect of PDE4 inhibitors on OAB is studied with a chronic cyclophosphamide (CYP)-induced overactive bladder mouse model adapted from Boudes et al., Neurourol. Urodynam. 2011. In a typical study, female C57/Bl6 mice, approximately 20 grams in body weight (Harlan Laboratories, Inc., Indianapolis, Ind.) are used. Mice are randomized by body weight into groups one day before the start of the study. Mice are individually housed and maintained on a 12 hour light/dark cycle at 22° C. with ad lib access to food (TD 2014 with 0.72% Ca and 0.61% P, 990 IU/g D3, Teklad™, Madison, Wis.) and water. Animals receive cyclophosphamide (dissolved in physiological saline) i.p. administration at 100 mg/kg on days 1, 3, 5, and 7 to chronically induce OAB. The vehicle control group received daily vehicle (HEC 1%/Tween 80 0.25%/Antifoam 0.05%) administered orally. All other groups are administered orally tadalafil at 10 mg/kg in combination with 0.1, 1.0, or 10.0 mg/kg of test compound daily at a volume of 200 μl/mouse. On day 8, mice are housed in urine collection chambers with a filter paper placed underneath chamber. Prior to urine collection, gavages of 1 ml water are given to each mouse. Urine is collected from 6 pm to 10 pm (i.e. for 4 hrs). Gel cups (DietGel™76A) are supplied as water source during the 4 hour period. The filter paper is changed every hour. Voiding frequency and volume/void are calculated using Image J software (NIH). Data are statistically analyzed with JMP8® software (Cary, N.C.).
All treatment groups receive a fixed dose of 10 mg/kg of tadalafil.

The target of assay [2] is T1, PDE4B (Homo sapiens, UniProt Q07343).
T1 construct: made in house; host or cells: Saccharomyces cerevisiae lacking endogenous PDEs
Kind of assay: PDE4 Inhibition In Vitro Assay. Format: biochemical. The settings on record: human recombinant PDE4B. On the procedure: The phosphodiesterase assays are performed essentially according to the method described in Loughney, K., et al., J. Biol. Chem., 271, pp. 796-806 (1996). PDE4A, PDE4B, PDE4C, PDE4D, and PDE5 human recombinant proteins are expressed and purified from Saccharomyes cerevisiae that lack endogenous PDEs. The phosphodiesterase enzymes are diluted on ice with enzyme dilution buffer (25 mM Tris, pH 7.5, 0.1 mM DTT, 5.0 mM MgCl2, 100 mM NaCl, 5 μM ZnSO4, 100 μg/mL BSA) to give approximately 20%-40% hydrolysis of cyclic nucleotide monophosphate (cNMP) in the absence of inhibitor.
The stock solution of test compounds are diluted on the Beckman BioMek™ 1000 workstation to span a concentration range of 4.5 log units in 0.5 log increments. The DMSO concentration in the final test system is 2.5% for all PDE enzymes. The final test compound concentration tested ranged from 0.03 nM to 1 μM.
The assay is performed in a 96-well microtiter plate format on a Beckman BioMek™ 1000 robotic station. […] The amount of radioactivity released as phosphate is determined in a Wallac MicroBeta Plate™ counter.
The reduced data at each concentration of inhibitor is analyzed using a four-, three- or two-parameter logistic dose response model to provide an IC50 value.

Where [3] appears, read: Example 2 0.1, 1.0, 10.0 mg/kg given with tadalafil 10 mg/kg.

T1 sequence (Q07343 whole entry): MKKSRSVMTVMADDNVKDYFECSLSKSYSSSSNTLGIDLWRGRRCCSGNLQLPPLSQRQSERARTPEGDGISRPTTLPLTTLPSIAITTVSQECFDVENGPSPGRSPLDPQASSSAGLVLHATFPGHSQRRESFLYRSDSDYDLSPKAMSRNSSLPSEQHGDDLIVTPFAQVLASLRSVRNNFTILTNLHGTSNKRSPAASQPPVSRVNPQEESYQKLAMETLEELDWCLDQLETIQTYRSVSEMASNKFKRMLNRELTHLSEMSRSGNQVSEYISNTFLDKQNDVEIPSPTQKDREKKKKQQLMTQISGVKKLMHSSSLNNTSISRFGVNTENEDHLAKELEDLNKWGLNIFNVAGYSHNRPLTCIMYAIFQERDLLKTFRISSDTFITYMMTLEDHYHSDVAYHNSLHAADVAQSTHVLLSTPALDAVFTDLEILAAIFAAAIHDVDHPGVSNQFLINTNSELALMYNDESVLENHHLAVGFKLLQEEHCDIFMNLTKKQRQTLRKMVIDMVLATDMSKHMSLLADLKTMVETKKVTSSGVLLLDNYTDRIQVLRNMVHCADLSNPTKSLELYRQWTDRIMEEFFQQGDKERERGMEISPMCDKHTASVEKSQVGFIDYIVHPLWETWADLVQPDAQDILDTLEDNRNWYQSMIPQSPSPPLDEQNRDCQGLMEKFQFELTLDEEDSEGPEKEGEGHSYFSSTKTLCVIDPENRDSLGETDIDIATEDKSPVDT

The IC50 is the concentration that gives 50% inhibition. For the molecule `COc1ccc([C@@H]2CN(C(=O)[C@@H](O)CO)C[C@@]2(C)[C@@H](C)O)cc1OC1CN(c2ccc(C)cn2)C1` [Example 2, (2S)-3-[(3S,4S)-3-[(1R)-1-hydroxyethyl]-4-(4-methoxy-3-{[1-(5-methylpyridin-2-yl)azetidin-3-yl]oxy}phenyl)-3-methylpyrrolidin-1-yl]-3-oxopropane-1,2-diol], the “Mean Voiding Frequency” value in assay [1] (Example 2 0.1 mg/kg + tadalafil 10 mg/kg, oral daily, day 8, CYP-treated female C57/Bl6 mice, vehicle 16.5) came out at 10 no./4 hr. In assay [1] (setting [3]), the “effect on urinary frequency (in words)” value is reported as “significantly reduces urinary frequency in a dose-dependent fashion” and the “effect on volume/void (in words)” value is listed as “increases of volume/void are also observed in a dose-dependent fashion”. Further, in assay [2], the IC50 was < 10 nM and 0.58 nM.
Consider `COc1ccc([C@@H]2CN(C(=O)[C@@H](O)CO)C[C@@]2(C)[C@@H](C)O)cc1OC1CN(c2ccccn2)C1` [Example 1, (2S)-3-[(3S,4S)-3-[(1R)-1-hydroxyethyl]-4-{4-methoxy-3-[(1-pyridin-2-ylazetidin-3-yl)oxy]phenyl}-3-methylpyrrolidin-1-yl]-3-oxopropane-1,2-diol], for which the IC50 in assay [2] was < 10 nM.

The values are drawn from patent US9266859B2, “Azetidinyloxyphenylpyrrolidine compounds” (Eli Lilly and Company, priority 2013, dated 2016).
